Results published in ChEMBL document CHEMBL1201862, “PubChem BioAssay data set” (2004).
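All cell lines were grown in 96-well plates and treated with compound for 48 hours. GI50 is the concentration that inhibits growth by half.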 The source made the active and inactive calls. Rule as the data show it: active = GI50 up to about 1.1 µM and inactive = higher.

Tests used:
Assay in all cases: NCI-60 cell line screen, 48 h
[1] = test system: 786-0
[2] = test system: A498
[3] = test system: A549
[4] = test system: ACHN
[5] = test system: CAKI-1
[6] = test system: CCRF-CEM
[7] = test system: COLO 205
[8] = test system: DU-145
[9] = test system: EKVX
[10] = test system: HCC 2998
[11] = test system: HCT-116
[12] = test system: HCT-15
[13] = test system: HL-60
[14] = test system: HOP-62
[15] = test system: HOP-92
[16] = test system: HT-29
[17] = test system: Hs-578T
[18] = test system: IGROV-1
[19] = test system: K562
[20] = test system: KM12
[21] = test system: LOX IMVI
[22] = test system: M14
[23] = test system: MCF7
[24] = test system: MDA-MB-231
[25] = test system: MDA-MB-435
[26] = test system: MDA-N
[27] = test system: MOLT-4
[28] = test system: Malme-3M
[29] = test system: NCI-H226
[30] = test system: NCI-H23
[31] = test system: NCI-H460
[32] = test system: NCI-H522
[33] = test system: NCI/ADR-RES
[34] = test system: OVCAR-3
[35] = test system: OVCAR-4
[36] = test system: OVCAR-5
[37] = test system: OVCAR-8
[38] = test system: PC-3
[39] = test system: RPMI-8226
[40] = test system: RXF 393
[41] = test system: SF-268
[42] = test system: SF-295
[43] = test system: SF-539
[44] = test system: SK-MEL-28
[45] = test system: SK-MEL-2
[46] = test system: SK-MEL-5
[47] = test system: SK-OV-3
[48] = test system: SN12C
[49] = test system: SNB-19
[50] = test system: SNB-75
[51] = test system: SR
[52] = test system: SW-620
[53] = test system: T47D
[54] = test system: TK-10
[55] = test system: U-251
[56] = test system: UACC-62
[57] = test system: UO-31
[58] = test system: UACC-257

Measured: GI50

CN1C=COC1N=C1CCCCC1 (configuration not stated)
> 100 µM: [12]
inactive: [1] > 100 µM | [2] > 100 µM | [3] > 100 µM | [4] > 100 µM | [5] 3.74 µM | [6] > 100 µM | [7] > 100 µM | [8] > 100 µM | [9] > 100 µM | [10] > 100 µM | [11] > 100 µM | [13] > 100 µM | [14] > 100 µM | [15] 75.7 µM | [16] > 100 µM | [17] > 100 µM | [18] > 100 µM | [19] > 100 µM | [20] > 100 µM | [21] > 100 µM | [22] > 100 µM | [23] > 100 µM | [24] > 100 µM | [25] > 100 µM | [26] > 100 µM | [27] > 100 µM | [28] > 100 µM | [29] > 100 µM | [30] > 100 µM | [31] > 100 µM | [32] > 100 µM | [33] > 100 µM | [34] > 100 µM | [35] > 100 µM | [36] > 100 µM | [37] > 100 µM | [38] > 100 µM | [39] > 100 µM | [40] > 100 µM | [41] > 100 µM | [42] > 100 µM | [43] > 100 µM | [44] > 100 µM | [45] > 100 µM | [46] > 100 µM | [47] > 100 µM | [48] > 100 µM | [49] 4.02 µM | [50] 41.4 µM | [51] > 100 µM | [52] 3.3 µM | [53] > 100 µM | [54] > 100 µM | [55] > 100 µM | [56] > 100 µM | [57] 50.9 µM

c1ccc([P+](CCCCCC[P+](c2ccccc2)(c2ccccc2)c2ccccc2)(c2ccccc2)c2ccccc2)cc1
active: [49] 0.906 µM | [55] 0.798 µM
inactive: [1] 24 µM | [2] 5.04 µM | [3] 7.41 µM | [4] 50.8 µM | [5] > 100 µM | [6] 13.1 µM | [7] 2.68 µM | [8] 11.9 µM | [9] 54.5 µM | [10] 46.7 µM | [11] 4.51 µM | [13] 10.6 µM | [14] 9.18 µM | [15] 8.32 µM | [16] 7.24 µM | [17] 15.3 µM | [18] 3.84 µM | [19] 11.7 µM | [20] 3.85 µM | [21] 12.2 µM | [22] 28.6 µM | [23] 5.94 µM | [24] 12.8 µM | [25] 15.2 µM | [26] 16.1 µM | [27] 22.9 µM | [28] 37.3 µM | [29] 8.87 µM | [30] 4.71 µM | [31] 9.38 µM | [32] 7.24 µM | [33] > 100 µM | [34] 19.8 µM | [35] 23.3 µM | [36] 34.3 µM | [37] 13.3 µM | [38] 8.51 µM | [40] 11.6 µM | [41] 3.49 µM | [42] 59.4 µM | [43] 5.24 µM | [44] 17.5 µM | [47] 62.2 µM | [48] 15.3 µM | [50] 5.2 µM | [51] 21.1 µM | [52] 18.5 µM | [53] 4.92 µM | [54] 8.36 µM | [58] 1.59 µM | [56] 18 µM | [57] > 100 µM
> 100 µM: [12]
